In PMC6423783, “Flavokawain B targets protein neddylation for enhancing the anti-prostate cancer effect of Bortezomib via Skp2 degradation” (Cell Communication and Signaling : CCS, 2019):

Biological target: T1, NAE1 regulatory subunit APP-BP1 (NEDD8 activating enzyme, NAE) (Homo sapiens, UniProt Q13564)
T1 construct: APP-BP1/UBA3 (NEDD8 ligase E1); with UBA3
T1 sequence (Q13564 2-534): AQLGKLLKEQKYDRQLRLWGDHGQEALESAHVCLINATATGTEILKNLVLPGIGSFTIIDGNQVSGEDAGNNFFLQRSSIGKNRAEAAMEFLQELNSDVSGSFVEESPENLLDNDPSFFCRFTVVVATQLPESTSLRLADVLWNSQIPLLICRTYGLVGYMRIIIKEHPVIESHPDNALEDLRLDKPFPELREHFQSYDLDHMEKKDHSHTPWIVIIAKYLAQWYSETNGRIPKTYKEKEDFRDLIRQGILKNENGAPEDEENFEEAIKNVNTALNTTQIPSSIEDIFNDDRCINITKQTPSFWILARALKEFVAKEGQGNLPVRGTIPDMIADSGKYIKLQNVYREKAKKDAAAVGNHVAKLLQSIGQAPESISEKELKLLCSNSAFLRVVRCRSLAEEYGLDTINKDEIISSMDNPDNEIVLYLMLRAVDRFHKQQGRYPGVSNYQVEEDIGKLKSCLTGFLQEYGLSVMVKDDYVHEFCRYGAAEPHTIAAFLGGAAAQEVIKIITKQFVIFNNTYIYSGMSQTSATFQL
T1 sequence (Q8TBC4 2-463 partner): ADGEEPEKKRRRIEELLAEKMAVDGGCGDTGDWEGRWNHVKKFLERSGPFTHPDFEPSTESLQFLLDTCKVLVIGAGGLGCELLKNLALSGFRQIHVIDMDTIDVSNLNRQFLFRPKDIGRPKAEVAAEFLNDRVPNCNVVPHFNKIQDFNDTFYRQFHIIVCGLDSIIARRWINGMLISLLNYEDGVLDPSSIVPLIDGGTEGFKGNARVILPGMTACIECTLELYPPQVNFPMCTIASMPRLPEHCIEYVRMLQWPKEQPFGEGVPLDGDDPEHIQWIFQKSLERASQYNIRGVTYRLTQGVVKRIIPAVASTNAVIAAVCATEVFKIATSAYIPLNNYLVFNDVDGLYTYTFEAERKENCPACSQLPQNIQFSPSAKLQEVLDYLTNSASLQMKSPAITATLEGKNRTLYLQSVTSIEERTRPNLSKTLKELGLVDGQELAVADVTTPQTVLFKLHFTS
Test: in vitro NEDD8 initiation conjugation assay (APP-BP1/UBA3, UbcH12, NEDD8; Western readout), supported by CETSA of APP-BP1 in PC3 cells
Assay type: biochemical
Experimental: in vitro NEDD8 initiation conjugation assay (APP-BP1/UBA3, UbcH12, NEDD8; Western readout), supported by CETSA of APP-BP1 in PC3 cells on NAE1 regulatory subunit APP-BP1 (NEDD8 activating enzyme, NAE) | The relative density of NEDD8-Ubc12 to the control was analyzed to have an estimated IC50 of approximately11μM

**Q.** How did the IC50 turn out when `COc1cc(O)c(C(=O)/C=C/c2ccccc2)c(OC)c1` [FKB, Flavokawain B] was run?
**A.** Its IC50 is ~11 µM.
